Assay results published in ChEMBL document CHEMBL4364269, “Identification of a novel orally bioavailable ERK5 inhibitor with selectivity over p38α and BRD4” (Eur J Med Chem, 2019).

Columns and labels:
[1] = target: Bromodomain-containing protein 4 (Homo sapiens, UniProt O60885); assay: Inhibition of BRD4 (unknown origin)
[2] = system: A2780; assay: Antitumor activity against human A2780 cells xenografted in CD1 mouse assessed as reduction in tumor volume at 50 mg/kg, ip administered bid for 10 days started on day 7 post-tumor inoculation and measured three times per week by digital caliper analysis; type: functional
[3] = Toxicity in CD1 mouse xenografted with human A2780 cells assessed as body weight at 50 mg/kg, ip administered bid for 10 days (reference value: 96%); type: organism-based; settings: in vivo, 240 h
[4] = target: Mitogen-activated protein kinase 14 (Homo sapiens, UniProt Q16539); assay: Inhibition of recombinant N-terminal GST-tagged full length human p38alpha expressed in Escherichia coli cells assessed as substrate phosphorylation using Ulight-MBP peptide as substrate incubated for 1 hr by LANCE assay
Sequence of Mitogen-activated protein kinase 14 (Q16539 whole entry): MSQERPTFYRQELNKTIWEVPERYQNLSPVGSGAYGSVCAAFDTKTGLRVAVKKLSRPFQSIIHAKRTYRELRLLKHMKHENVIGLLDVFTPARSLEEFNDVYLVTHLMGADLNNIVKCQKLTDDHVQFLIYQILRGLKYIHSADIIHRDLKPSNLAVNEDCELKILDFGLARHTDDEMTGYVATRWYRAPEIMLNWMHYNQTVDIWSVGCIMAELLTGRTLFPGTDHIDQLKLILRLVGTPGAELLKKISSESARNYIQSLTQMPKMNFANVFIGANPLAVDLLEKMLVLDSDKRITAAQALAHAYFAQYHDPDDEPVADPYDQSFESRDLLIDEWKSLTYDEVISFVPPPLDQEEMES

[5] = system: PC-3; assay: Growth inhibition of human PC3 cells; type: functional
[6] = Stability in human liver microsomes assessed as intrinsic clearance per mg protein; type: ADME, Microsome; settings: read-out: CLH
[7] = Stability in mouse liver microsomes assessed as intrinsic clearance per mg protein; type: ADME, Microsome; settings: read-out: CLH
[8] = Permeability across basolateral to apical side in human Caco2 cells; type: ADME, cell-based; settings: Caco-2, read-out: permeability
[9] = Solubility of compound by turbidometry; type: physicochemical
[10] = Fraction unbound in plasma (unknown origin); type: ADME, cell-free
[11] = target: Cytochrome P450 2C19 (Homo sapiens, UniProt P33261); assay: Inhibition of CYP2C19 (unknown origin); type: ADME
Sequence of Cytochrome P450 2C19 (P33261 whole entry): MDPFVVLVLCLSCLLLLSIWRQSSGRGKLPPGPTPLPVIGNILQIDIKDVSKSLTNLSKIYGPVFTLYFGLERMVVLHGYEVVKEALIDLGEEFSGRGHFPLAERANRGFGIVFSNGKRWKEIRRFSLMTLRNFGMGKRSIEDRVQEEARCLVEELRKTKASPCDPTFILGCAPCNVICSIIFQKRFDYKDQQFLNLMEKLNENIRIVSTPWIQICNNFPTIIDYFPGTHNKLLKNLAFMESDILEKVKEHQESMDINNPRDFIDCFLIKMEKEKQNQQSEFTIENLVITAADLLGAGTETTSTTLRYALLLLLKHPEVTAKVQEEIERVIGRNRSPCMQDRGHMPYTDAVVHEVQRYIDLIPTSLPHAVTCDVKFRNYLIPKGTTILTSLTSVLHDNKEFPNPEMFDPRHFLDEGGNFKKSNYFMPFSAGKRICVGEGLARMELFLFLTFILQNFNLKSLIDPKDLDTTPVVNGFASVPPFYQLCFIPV

[12] = target: Cytochrome P450 2C9 (Homo sapiens, UniProt P11712); assay: Inhibition of CYP2C9 (unknown origin); type: ADME
Sequence of Cytochrome P450 2C9 (P11712 whole entry): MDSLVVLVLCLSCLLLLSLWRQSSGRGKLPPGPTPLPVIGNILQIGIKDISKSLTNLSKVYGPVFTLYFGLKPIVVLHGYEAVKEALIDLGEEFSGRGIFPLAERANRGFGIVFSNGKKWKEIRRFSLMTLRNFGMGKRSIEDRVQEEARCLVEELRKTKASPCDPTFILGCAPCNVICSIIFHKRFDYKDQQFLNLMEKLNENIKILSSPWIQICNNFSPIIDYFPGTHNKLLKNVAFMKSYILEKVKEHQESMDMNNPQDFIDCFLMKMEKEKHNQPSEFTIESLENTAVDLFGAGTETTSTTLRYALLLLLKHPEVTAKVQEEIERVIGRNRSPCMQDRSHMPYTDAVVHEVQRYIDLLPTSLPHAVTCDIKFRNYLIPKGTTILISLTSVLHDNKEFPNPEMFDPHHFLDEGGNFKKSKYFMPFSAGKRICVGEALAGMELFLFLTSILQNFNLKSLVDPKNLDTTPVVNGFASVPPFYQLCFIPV

[13] = target: Cytochrome P450 2D6 (Homo sapiens, UniProt P10635); assay: Inhibition of CYP2D6 (unknown origin); type: ADME
Sequence of Cytochrome P450 2D6 (P10635 whole entry): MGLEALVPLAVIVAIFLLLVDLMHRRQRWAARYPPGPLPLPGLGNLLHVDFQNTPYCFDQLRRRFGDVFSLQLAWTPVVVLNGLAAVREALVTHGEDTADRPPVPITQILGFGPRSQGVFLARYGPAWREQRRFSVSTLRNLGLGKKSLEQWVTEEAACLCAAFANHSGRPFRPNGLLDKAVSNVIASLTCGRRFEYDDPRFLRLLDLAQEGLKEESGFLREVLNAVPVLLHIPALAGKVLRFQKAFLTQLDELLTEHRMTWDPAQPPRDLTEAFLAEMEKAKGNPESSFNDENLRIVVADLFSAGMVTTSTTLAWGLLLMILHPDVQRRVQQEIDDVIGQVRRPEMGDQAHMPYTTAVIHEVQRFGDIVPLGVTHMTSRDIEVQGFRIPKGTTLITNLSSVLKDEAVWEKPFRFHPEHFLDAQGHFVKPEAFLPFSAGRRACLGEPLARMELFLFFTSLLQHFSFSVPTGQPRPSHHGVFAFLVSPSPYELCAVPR

[14] = target: Cytochrome P450 3A4 (Homo sapiens, UniProt P08684); assay: Inhibition of CYP3A4 (unknown origin); type: ADME
Sequence of Cytochrome P450 3A4 (P08684 whole entry): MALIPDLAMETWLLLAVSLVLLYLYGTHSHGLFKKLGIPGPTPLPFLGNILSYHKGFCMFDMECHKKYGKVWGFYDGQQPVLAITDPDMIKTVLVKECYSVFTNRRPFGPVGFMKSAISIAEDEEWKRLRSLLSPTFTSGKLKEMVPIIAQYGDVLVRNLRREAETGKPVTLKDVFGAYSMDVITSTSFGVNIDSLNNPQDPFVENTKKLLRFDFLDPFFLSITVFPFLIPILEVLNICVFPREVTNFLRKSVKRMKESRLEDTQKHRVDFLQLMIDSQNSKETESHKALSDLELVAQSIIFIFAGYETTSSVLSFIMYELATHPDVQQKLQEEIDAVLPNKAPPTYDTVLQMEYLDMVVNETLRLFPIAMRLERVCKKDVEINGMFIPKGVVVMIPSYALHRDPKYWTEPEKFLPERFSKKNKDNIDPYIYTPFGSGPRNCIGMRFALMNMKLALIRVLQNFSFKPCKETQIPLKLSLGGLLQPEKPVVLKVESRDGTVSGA

[15] = AUC in CD1 mouse at 10 mg/kg, po measured upto 24 hrs by LCMS analysis; type: ADME, organism-based; parameters: dose 10 mg/kg, time < 24 hr, route oral; settings: in vivo
[16] = Cmax in CD1 mouse at 10 mg/kg, po measured upto 24 hrs by LCMS analysis; type: ADME, organism-based; parameters: dose 10 mg/kg, route oral; settings: in vivo
[17] = Tmax in CD1 mouse at 10 mg/kg, po measured upto 24 hrs by LCMS analysis; type: ADME, organism-based; settings: in vivo
[18] = Oral bioavailability in CD1 mouse at 10 mg/kg measured upto 24 hrs by LCMS analysis; type: ADME, organism-based; settings: in vivo
[19] = AUC in CD1 mouse at 10 mg/kg, iv measured upto 24 hrs by LCMS analysis; type: ADME, organism-based; parameters: time < 24 hr, dose 10 mg/kg, route intravenous; settings: in vivo
[20] = Cmax in CD1 mouse at 10 mg/kg, iv measured upto 24 hrs by LCMS analysis; type: ADME, organism-based; parameters: dose 10 mg/kg, route intravenous; settings: in vivo
[21] = Volume of distribution in CD1 mouse at 10 mg/kg, iv measured upto 24 hrs by LCMS analysis; type: ADME, organism-based; settings: in vivo
[22] = Clearance in CD1 mouse at 10 mg/kg, iv measured upto 24 hrs by LCMS analysis; type: ADME, organism-based; settings: in vivo
[23] = Half life in CD1 mouse at 10 mg/kg, iv measured upto 24 hrs by LCMS analysis; type: ADME, organism-based; settings: in vivo
[24] = system: A2780; assay: Antitumor activity against human A2780 cells xenografted in CD1 mouse assessed as reduction in tumor volume at 100 mg/kg, po administered bid for 10 days started on day 7 post-tumor inoculation and measured three times per week by digital caliper analysis; type: functional
[25] = Toxicity in CD1 mouse xenografted with human A2780 cells assessed as body weight at 100 mg/kg, po administered bid for 10 days (reference value: 96%); type: organism-based; settings: in vivo, 240 h
[26] = target: T1, Mitogen-activated protein kinase 7 (Homo sapiens, UniProt Q13164); assay: Inhibition of ERK5 (unknown origin) using R7129 as substrate incubated for 2 hrs by IMAP fluorescence polarization analysis
T1 sequence (Q13164 whole entry, the tested form may be a part): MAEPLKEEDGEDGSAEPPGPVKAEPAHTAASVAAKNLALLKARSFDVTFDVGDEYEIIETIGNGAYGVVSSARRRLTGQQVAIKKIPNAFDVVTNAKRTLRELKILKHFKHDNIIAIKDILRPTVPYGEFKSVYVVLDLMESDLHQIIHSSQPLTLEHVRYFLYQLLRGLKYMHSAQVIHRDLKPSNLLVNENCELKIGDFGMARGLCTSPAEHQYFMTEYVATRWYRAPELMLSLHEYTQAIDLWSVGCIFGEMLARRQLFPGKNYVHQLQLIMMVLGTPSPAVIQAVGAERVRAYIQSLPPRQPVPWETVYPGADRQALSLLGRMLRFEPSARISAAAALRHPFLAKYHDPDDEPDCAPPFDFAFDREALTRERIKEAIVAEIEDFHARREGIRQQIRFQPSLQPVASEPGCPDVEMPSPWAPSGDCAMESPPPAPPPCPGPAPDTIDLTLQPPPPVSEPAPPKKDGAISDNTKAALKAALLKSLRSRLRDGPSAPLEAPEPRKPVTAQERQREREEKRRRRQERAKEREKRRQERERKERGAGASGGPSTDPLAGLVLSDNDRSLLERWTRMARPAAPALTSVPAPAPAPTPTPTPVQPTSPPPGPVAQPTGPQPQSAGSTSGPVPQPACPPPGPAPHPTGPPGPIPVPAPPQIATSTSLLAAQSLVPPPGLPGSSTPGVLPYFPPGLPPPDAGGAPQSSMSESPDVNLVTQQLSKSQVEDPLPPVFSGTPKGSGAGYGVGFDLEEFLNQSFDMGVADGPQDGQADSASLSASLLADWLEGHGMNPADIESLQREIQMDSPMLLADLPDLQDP

[27] = target: T1, Mitogen-activated protein kinase 7; assay: Inhibition of HA-tagged ERK5 (unknown origin) coexpressed with mutationally activated EGFP-MEK5D and Gal4-MEF2D in HEK293 cells assessed as reduction in MEF2 transcription by measuring luciferase signal after 20 hrs by luciferase reporter gene assay; type: cell-based
[28] = target: T1, Mitogen-activated protein kinase 7; assay: Inhibition of recombinant N-terminal His-tagged human ERK5 (2 to 409 residues) co-expressed with GST-tagged human truncated MEK5DD lacking N-terminal 11 residues (13 to 448 residues) in Sf9 insect cells assessed as substrate peptide phosphorylation using (LVEPLTPSGEAPNQ(K-5FAM)-COOH as substrate incubated for 2 hrs by IMAP fluorescence polarisation assay

Q: What does the source list for `CCOc1cc(N2CCC(O)CC2)ccc1Nc1ncc2c(n1)N(C)c1ccccc1C(=O)N2C`?
A: Kd [1]: 1.6 µM; inhibition in vivo at 50 mg/kg [2]: 62%; Activity [3]: 98%

Q: Which IC50 [4] does the source give for `O=C(Nc1cccnc1)c1cc(C(=O)c2c(F)cccc2Br)c[nH]1` here?
A: Its IC50 is over 120 µM.

Q: What about the GI50 [5] of the same molecule?
A: The GI50 was 44 µM.

Q: And the microsomal CLint [6]?
A: Its microsomal CLint is under 5 µL/min/mg.

Q: And the microsomal CLint [7]?
A: Its microsomal CLint is 26 µL/min/mg.

Q: What about the Papp B→A [8] of the same molecule?
A: The Papp B→A was over 10 ×10⁻⁶ cm/s.

Q: What about the solubility kinetic [9] of the same molecule?
A: The solubility kinetic was over 100 µM.

Q: What about the fraction unbound [10] of the same molecule?
A: The fraction unbound was 0.06.

Q: And the IC50 [11]?
A: Its IC50 is over 5 µM.

Q: And the IC50 [12]?
A: Its IC50 is over 5 µM.

Q: And the IC50 [13]?
A: Its IC50 is over 5 µM.

Q: And the IC50 [14]?
A: Its IC50 is over 5 µM.

Q: What about the AUC at 24 h [15] of the same molecule?
A: Its AUC at 24 h is 4230 ng·h/mL.

Q: And the Cmax [16]?
A: The Cmax was 6 µM.

Q: And the Tmax [17]?
A: Its Tmax is 15 min.

Q: What about the bioavailability [18] of the same molecule?
A: The bioavailability was 68%.

Q: What about the AUC at 24 h [19] of the same molecule?
A: The AUC at 24 h was 6200 ng·h/mL.

Q: And the Cmax [20]?
A: Its Cmax is 25 µM.

Q: What about the Vd [21] of the same molecule?
A: The Vd was 1.2 L/kg.

Q: What about the clearance [22] of the same molecule?
A: The clearance was 27 mL/min/kg.

Q: What about the half-life [23] of the same molecule?
A: The half-life was 38 min.

Q: And the inhibition in vivo at 100 mg/kg [24]?
A: Its inhibition in vivo at 100 mg/kg is 57%.

Q: And the Activity [25]?
A: The Activity was 99%.

Q: Which IC50 [26] does the source give for `O=C(NCc1ccncc1)c1cc(C(=O)c2cccc(Cl)c2Cl)c[nH]1` here?
A: Its IC50 is 2 µM.

Q: For `O=C(Nc1ccncc1)c1cc(C(=O)c2c(F)cccc2F)c[nH]1`, which IC50 [4] is on record?
A: The IC50 was 100 µM.

Q: And the IC50 [27]?
A: The IC50 was 8 µM.

Q: Which IC50 [28] does the source give for `O=C(NCc1ccncc1)c1cc(C(=O)c2c(F)cccc2F)c[nH]1` here?
A: Its IC50 is 30 µM.

Q: What about the IC50 [4] of the same molecule?
A: Its IC50 is 0.58 µM.

Q: Which IC50 [28] does the source give for `O=C(NCc1ccncc1)c1cc(C(=O)c2c(Cl)cccc2Cl)c[nH]1` here?
A: The IC50 was 4.4 µM.

Q: What about the IC50 [4] of the same molecule?
A: The IC50 was 12.3 µM.

Q: With `O=C(Nc1cccnc1)c1cc(C(=O)c2c(F)cccc2Cl)c[nH]1` as the molecule, how does the IC50 [4] read?
A: Its IC50 is 93.2 µM.

Q: For `O=C(NCc1ccncc1)c1cc(C(=O)c2cccc(F)c2F)c[nH]1`, which IC50 [28] is on record?
A: Its IC50 is 7 µM.

Q: And the IC50 [4]?
A: Its IC50 is 2.4 µM.

Q: With `O=C(NCc1ccncc1)c1cc(C(=O)c2ccccc2Cl)c[nH]1` as the molecule, how does the IC50 [28] read?
A: Its IC50 is 15 µM.

Q: Which IC50 [28] does the source give for `O=C(Nc1cccnc1)c1cc(C(=O)c2c(F)cccc2F)c[nH]1` here?
A: Its IC50 is 1.1 µM.

Q: And the IC50 [4]?
A: Its IC50 is 35 µM.

Q: For `O=C(c1ccc(Cl)cc1)c1c[nH]c(C(=O)NCc2ccncc2)c1`, which IC50 [28] is on record?
A: Its IC50 is over 120 µM.

Q: What does the source list for `O=C(NCc1ccncc1)c1cc(C(=O)c2ccccc2F)c[nH]1`?
A: IC50 [28]: 5.9 µM; IC50 [4]: 0.36 µM

Q: With `O=C(Nc1ccncc1)c1cc(C(=O)c2c(F)cccc2Br)c[nH]1` as the molecule, how does the IC50 [28] read?
A: Its IC50 is 0.7 µM.

Q: What about the IC50 [4] of the same molecule?
A: The IC50 was over 120 µM.

Q: What about the IC50 [27] of the same molecule?
A: The IC50 was 4 µM.

Q: For `O=C(Nc1ccncc1)c1cc(C(=O)c2c(F)cccc2Cl)c[nH]1`, which IC50 [4] is on record?
A: The IC50 was over 120 µM.

Q: What about the IC50 [27] of the same molecule?
A: Its IC50 is 2.3 µM.

Q: For `O=C(c1ccc(F)cc1)c1c[nH]c(C(=O)NCc2ccncc2)c1`, which IC50 [28] is on record?
A: Its IC50 is over 120 µM.

Q: Which IC50 [28] does the source give for `O=C(c1ccccc1)c1c[nH]c(C(=O)NCc2ccncc2)c1` here?
A: The IC50 was 40 µM.

Q: For `O=C(c1cccc(Cl)c1)c1c[nH]c(C(=O)NCc2ccncc2)c1`, which IC50 [28] is on record?
A: The IC50 was 6.3 µM.

Q: And the IC50 [4]?
A: Its IC50 is 6.5 µM.

Q: With `O=C(c1cccc(F)c1)c1c[nH]c(C(=O)NCc2ccncc2)c1` as the molecule, how does the IC50 [28] read?
A: Its IC50 is over 120 µM.
